The values below come from patent US11466069B2, “Methods of treatment and novel constructs” (AUCKLAND UNISERVICES LIMITED, priority 2017, dated 2022).

“Also recorded” adds a separate entry of the source. Non-standard residues stand in square brackets, D forms with d. Residues, ends and D or L forms follow the SMILES beside them. No end group written: not given here.

Data set [1] deals with T1, Cx43 hemichannel (Homo sapiens, UniProt P17302). The data set can be described thus: Hemichannel mediated ATP release assay (low calcium solution). The class given is cell-based. On the set-up: endogenous in cells. The note with it: for ATP release compared to low calcium, 30 min: ARPE-19, 5 μM XG19, 100 μM Peptide5, 100 μM CBX, 30 min low calcium. On the procedure:
Peptides were applied onto cells for uptake studies as previously described. Peptide solutions were removed from the cells, which were then exposed to either low calcium (Ca^2+) solution or HAIR solution to open hemichannels or high calcium solution to close hemichannels for […] at 37° C., 5% CO2.

For data set [2], the system named is gap junctions. Put plainly: Lucifer Yellow dye scrape/load gap junction assay. It counts as cell-based, human. The note with it: ARPE-19, scrape/load; XG19 5 μM. The method, then: Peptides were applied onto cells for uptake as previously mentioned. Peptide solutions were removed from the cells and the cells were exposed to 0.1% […]/PBS dye (LY). A vertical and horizontal scrape was created in the cell monolayer using a pipette tip. The cells were then incubated at room temperature for 15 min. The LY dye solution was removed, cells were washed in PBS and fixed in 4% formaldehyde PBS with nuclei counterstained with DAPI. Coverslips were mounted in anti-fade medium (Citifluor™ AF1) and slides were imaged.

For data set [3], the system named is ARPE-19 cells. The data set can be described thus: MTT cytotoxicity assay. The class given is cell-based, human. To be noted: ARPE-19 cells, 5, 10 or 20 μM for 1 or 24 h. The method, then: ARPE-19 cells were exposed to DMEM/F12 (normal medium) or HAIR solution for 1 h. XG19 was mixed in DMEM/F12 or HAIR solution and applied to ARPE-19 cells at 0, 5, 10 or 20 μM concentrations for either 1 or 24 h at 37° C., 5% CO2. After the incubation period, the solutions in each well were removed and replaced with 0.5 mg/mL, MTT (Thermo Fisher Scientific) in PBS and incubated for 4 h at 37° C. and 5% CO2. The MTT/PBS solution was then removed and replaced with HCl-isopropanol solution (0.04 M) to dissolve formed formazan. The intensity of purple colour was quantified by measuring absorbance at 570 nm with correction of interference at 650 nm (BioTek Synergy HT).
Background: Formazan colour is commonly taken as a measure of viable cells.

Data set [4] deals with T1, Cx43 hemichannel. Put plainly: Hemichannel mediated EthD-1 dye uptake assay. To be noted: ARPE-19 cells, 5 μM peptide, low calcium solution. It counts as cell-based. On the set-up: endogenous in cells. The method, then:
Peptides were applied onto cells for uptake as previously mentioned. Peptide solutions were removed from the cells exposed to 2 μM ethidium homodimer-1 (EthD-1) in either Hanks Buffered Salt Solution (137 mM NaCl, 5.4 mM KCl, 0.25 mM Na2HPO4, 0.1 g glucose, 0.44 mM KH2PO4, 1.0 mM MgSO4, 4.2 mM NaHCO3)+EGTA (5 mM) (low calcium solution) to open hemichannels or high calcium (Ca′) solution (Hanks Buffered Salt Solution+1.3 mM CaCl2)) for […] at 37° C., 5% CO2. The solutions were removed, cells were washed in PBS and fixed in 4% formaldehyde PBS before counterstaining nuclei with DAPI. Coverslips were mounted in anti-fade medium (Citifluor™ AF1) and slides were imaged.

For data set [5], the system named is gap junction. The note with it: literature (6); cited from earlier work.
Data set [6] concerns hypoxic ARPE-19 cells. Put plainly: Cellular uptake in hypoxic ARPE-19 cells (HAIR solution). It counts as cell-based, human. The note with it: ARPE-19, FITC labelled peptide, HAIR solution 1 h. On the procedure: (§1) Peptides or control channel blockers, carbenoxolone (CBX) (Sigma) or lanthanum chloride (LaCl3; Sigma) were mixed with DMEM/F12 or EGM-2™ BulletKit™ media at appropriate concentrations and applied onto cells for 1 h at 37° C., 5% CO2. For cell uptake under hypoxic conditions, peptides were delivered in hypoxic, acidic ion-shifted Ringers (HAIR) solution (13) for 1 h at 37° C., 5% CO2. For cell uptake under hyperglycaemia and inflammation conditions peptides were delivered in hyperglycaemia and inflammation solution for 24 h at 37° C., 5% CO2. The solutions were removed and cells were washed in PBS and fixed in 4% formaldehyde PBS with nuclei were counterstained with DAPI. Coverslips were mounted in anti-fade medium (Citifluor™ AF1) and cells were visualised by confocal microscopy.

Data set [7] has as its target T1, Cx43 hemichannel. To be noted: ethidium bromide uptake, literature (6); cited from earlier work.
Data set [8] has as its system hRMEC cells. The data set can be described thus: Cellular uptake of FITC labelled peptides into hRMEC cells (confocal microscopy). The class given is cell-based, human. On the procedure:
Primary human retinal microvascular endothelial cells (hRMEC; Neuromics) were cultured and maintained in T25 flasks in EGM-2™ BulletKit™ media (Lonza) containing endothelial basal media (EBM-2; Lonza) and EGM-2 SingleQuots™ (Lonza), supplemented with 10% fetal bovine serum and 1% Antibiotic-Antimicotic (Sigma) at 37° C. with 5% CO2. VEGF was excluded from the EGM-2 media.
as §1

The subject of data set [9] is ARPE-19 cells. Put plainly: Cellular uptake of FITC labelled peptides into ARPE-19 cells in normal medium. It counts as cell-based, human. The note with it: for concentration at which cellular uptake was detected (FITC fluorescence): normal medium, FITC labelled peptide, 1 h, 10-50 μM (Gap19 up to 100 μM). On the procedure: Cell culture and maintenance Unless otherwise mentioned, all cell culture reagents were purchased from Gibco® or Invitrogen™ (Life Technologies). ARPE-19 cells are from a human retinal pigment epithelium cell line purchased from American Type Culture Collection (ATCC), and were maintained in T25 flasks in DMEM/F12 (DMEM/F-12, GlutaMAX™ medium containing 10% heat inactivated foetal bovine serum (FBS), and 1% Antibiotic-Antimicotic (Sigma)) at 37° C. with 5% CO2.
as §1

In data set [10] the test system is hyperglycaemic and inflamed ARPE-19 cells. The data set can be described thus: Cellular uptake in hyperglycaemic and inflamed ARPE-19 cells. It counts as cell-based, human. To be noted: ARPE-19, FITC labelled peptide, 24 h. On the procedure: The inflammatory cytokines TNFα and Il-1β (PeproTech) were added to achieve a final concentration of 10 ng/ml each. Antibiotic-Antimycotic was added to the solution to achieve a 1% concentration. The solution was made fresh before application to cells.
as §1

T1 sequence (P17302 2-382 limits assumed): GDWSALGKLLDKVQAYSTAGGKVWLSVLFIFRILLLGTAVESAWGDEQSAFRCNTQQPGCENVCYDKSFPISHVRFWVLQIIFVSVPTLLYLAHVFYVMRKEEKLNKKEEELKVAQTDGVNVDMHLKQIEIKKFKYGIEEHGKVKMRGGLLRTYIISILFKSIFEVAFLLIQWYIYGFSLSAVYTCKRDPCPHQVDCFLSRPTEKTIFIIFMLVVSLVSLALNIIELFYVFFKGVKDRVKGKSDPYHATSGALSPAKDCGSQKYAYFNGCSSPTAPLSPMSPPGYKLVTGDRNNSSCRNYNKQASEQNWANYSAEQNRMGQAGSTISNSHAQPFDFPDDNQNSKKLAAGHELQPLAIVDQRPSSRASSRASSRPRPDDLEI

As for `CC1(C)[C@@H](OC(=O)CCC(=O)O)CC[C@]2(C)[C@H]3C(=O)C=C4[C@@H]5C[C@@](C)(C(=O)O)CC[C@]5(C)CC[C@@]4(C)[C@]3(C)CC[C@@H]12` [CBX, carbenoxolone], the “ATP release compared to low calcium, 30 min” value in data set [1] is reported as “reduced ATP release”. For the same compound, the “gap junction function (Lucifer Yellow dye spread to neighbouring cells)” value in data set [2] is reported as “the dye was not further transported to any neighbouring cells; also recorded: inhibited gap junction communication”.

As to `CC[C@H](C)[C@H](NC(=O)[C@H](CCC(=O)O)NC(=O)[C@@H](NC(=O)[C@H](CCC(N)=O)NC(=O)[C@H](CCCCN)NC(=O)CNC(=O)CNC(=O)[C@H](NC(=O)[C@H]1CCCN1C(=O)[C@@H](CCCNC(=N)N)NC(=O)[C@@H](CC(C)C)NC(=O)[C@@H](CS)NC(=O)[C@H](N)CC(C)C)C(C)C)[C@@H](C)CC)C(=O)N[C@@H](CCCCN)C(=O)N[C@@H](CCCCN)C(=O)N[C@@H](Cc1ccccc1)C(=O)N[C@@H](CCCCN)C(=O)O` [XG19] (H-[dL][dC][dL][dR][dP][dV]GGKQIEIKKFK-OH), the “cell viability (MTT) compared to untreated cells” value in data set [3] is “no significant difference in cell viability”.

“FITC-XG19: FITC labelled XG19 used in the cellular uptake experiments ([dL][dC][dL][dR][dP][dV]GGKQIEIKKFK; also: FITC label, site not given here)”: the “EthD-1 dye uptake (mean fluorescence intensity) compared to low calcium treatment” value in data set [4] is “significant reduction of the mean fluorescence intensity; also recorded: reduced EthD-1 uptake”.

With “KQIEIKKFK (listed as Homo sapiens) [Gap19]”, in [5], the “gap junction function post uptake” value is recorded as “maintain gap junction function”. Also, the “cellular uptake in hypoxic solution vs normal media” value in data set [6] is recorded as “undetectable in either condition; also recorded: no change in uptake”. In data set [7], the “concentration at which efficacy improved” value was 344 to 688 µM and the “concentration with no effect on Cx43 hemichannel inhibition” value is above 172 µM. In addition, the “cellular uptake (FITC fluorescence) at 100 μM” value in data set [8] (100 μM, still lower than 10 μM XG19) is on record as “Some uptake was observed”. Moreover, the “concentration at which cellular uptake was detected (FITC fluorescence)” value in data set [8] (FITC labelled peptide, 1 h, XG19 10, 20, 50 μM, Gap19 10, 20, 50, 100 μM) is above 50 µM. Also, in [9] (ARPE-19 cells), the “concentration at which cellular uptake was detected (FITC fluorescence)” value was above 100 µM. In addition, in [10], the “cellular uptake in hyperglycaemia and inflammation solution vs normal media” value was “undetectable in either condition; also recorded: no change in uptake”.

With VDCFLSRPTEKT [PepS], the “ATP release relative to CBX treated group” value in data set [1] (ARPE-19, low calcium solution) is listed as “greater than CBX”. Also, in [1], the “ATP release compared to low calcium, 30 min” value was “reduced ATP release”.

For “YGRKKRRQRRRKQIEIKKFK [TAT-Gap19, fusion peptide of TAT peptide and Gap19]”, in data set [9] (ARPE-19 cells), the “concentration at which cells were saturated with peptide” value was 20 µM and the “concentration at which cellular uptake was detected (FITC fluorescence)” value is at most 10 µM. In data set [9] (ARPE-19 cells, 10, 20, 50 μM), the “cellular uptake (FITC fluorescence), dependence on concentration” value is reported as “dose dependant manner” and the “overall cellular uptake compared to XG19” value is given as “higher cell uptake than XG19”. In data set [9] (ARPE-19 cells, 10, 20, 50 μM, listed as TAT-GAP19), the “overall cellular uptake compared to XG19” value is given as “much greater than for XG19 at all the tested concentrations”. Besides, the “subcellular localisation of peptide after uptake” value in data set [9] (ARPE-19 cells, FITC vs DAPI) was “mainly accumulated into the nucleus”.
